Laboratory results as given in publication PMC8165160, “Substrate Specificities and Inhibition Pattern of the Solute Carrier Family 10 Members NTCP, ASBT and SOAT” (Frontiers in Molecular Biosciences, 2021).
Structures can show the parent of a compound that is named as a salt. Where two headings read alike, the source gives them in different places.

Experiments:
[1] = target: T1, SOAT (Homo sapiens, UniProt Q3KNW5); parameters: method as in Geyer et al. (2007); conditions: uptake via SOAT, same SOAT-HEK293 cell line; ref Geyer et al. (2007); cited from earlier work
T1 construct: The full-length open reading frames of NTCP, ASBT, and SOAT were cloned; expressed in transfected cells; host or cells: Flp-In T-REX HEK293 (SOAT-HEK293), tetracycline-induced
T1 sequence (Q3KNW5 1-377): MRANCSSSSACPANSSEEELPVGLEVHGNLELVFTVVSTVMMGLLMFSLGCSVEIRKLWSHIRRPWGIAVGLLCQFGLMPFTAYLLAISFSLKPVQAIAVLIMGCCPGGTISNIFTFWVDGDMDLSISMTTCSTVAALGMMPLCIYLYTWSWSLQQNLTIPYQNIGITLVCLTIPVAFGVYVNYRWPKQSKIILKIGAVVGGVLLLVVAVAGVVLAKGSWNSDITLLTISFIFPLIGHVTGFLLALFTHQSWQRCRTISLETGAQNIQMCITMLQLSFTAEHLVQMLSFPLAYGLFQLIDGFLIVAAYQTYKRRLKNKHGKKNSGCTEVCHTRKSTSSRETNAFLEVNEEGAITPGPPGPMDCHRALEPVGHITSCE

[2] = target: T1, SOAT; experiment: Transport kinetics (concentration-dependent uptake) in SOAT-HEK293 cells; type: cell-based; conditions: uptake via SOAT, 1 min, 37°C
Experimental: Cells were washed three times with phosphate buffered saline (PBS) (137 mM NaCl, 2.7 mM KCl, 1.5 mM KH2PO4, 7.3 mM Na2HPO4, pH 7.4, 37°C). Afterward, cells were preincubated at 37°C with sodium transport buffer (containing 142.9 mM NaCl, 4.7 mM KCl, 1.2 mM MgSO4, 1.2 mM KH2PO4, 1.8 mM CaCl2, and 20 mM HEPES (all chemicals from Sigma-Aldrich), adjusted to pH 7.4), or with choline transport buffer (equimolar substitution of sodium chloride with choline chloride). Uptake experiments were initiated by replacing the preincubation buffer by 500 μL transport buffer containing the radiolabeled test compound and were performed at 37°C. Transport was terminated by removing the transport buffer and washing five-times with ice-cold PBS. Cell monolayers were lysed in 1 N NaOH with 0.1% SDS and the cell-associated radioactivity was determined by liquid scintillation counting. Protein content of individual wells was determined by Lowry assay as reported before ([Geyer et al., 2007]).
FIGURE 2 NTCP, ASBT, and SOAT transport kinetics. Concentration-dependent uptake was analyzed in NTCP-HEK293, ASBT-HEK293, and SOAT-HEK293 cells for the indicated substrates at increasing substrate concentrations. […] Uptake was analyzed for 1 min at 37°C. Afterward, the medium was removed and each cell monolayer was washed and processed to determine the protein content and cell-associated radioactivity. […]

SMILES	Apparent K m [1] [µM]	V max [1] [pmol/mg protein/min]	Apparent K m [2] [µM]	V max [2] [pmol/mg protein/min]
C[C@]12CC[C@H](OS(=O)(=O)O)CC1=CC[C@@H]1[C@@H]2CC[C@]2(C)C(=O)CC[C@@H]12 [DHEAS, Dehydroepiandrosterone sulfate]	28.7 ± 3.9	1899 ± 81	–	–
C[C@H](CCC(=O)NCCS(=O)(=O)O)[C@H]1CC[C@H]2[C@@H]3CC[C@@H]4C[C@H](O)CC[C@]4(C)[C@H]3CC[C@]12C [Taurolithocholic acid]	–	–	19.3 ± 6.8	617 ± 57
